Source: US20040106632A1, “Salt of thiazolidinedione and its polymorphs as antidiabetic agents and method for obtaining them” (priority 2001, published 2004)

Columns and labels:
aqueous solubility = type: physicochemical
[1] = stability (solid and aqueous solution); type: physicochemical
oral absorption profile = type: in vivo; conditions: compared with the free base
[2] = hygroscopicity / solvate formation on purification; type: physicochemical

| Structure (SMILES) | solubility (in words) (aqueous solubility; aqueous) | stability [1] | aqueous solubility (aqueous solubility; water) | oral absorption profile (oral absorption profile) | hygroscopicity or formation of solvates [2] |
| --- | --- | --- | --- | --- | --- |
| COc1cc(N(C)CCOc2ccc(CC3SC(=O)NC3=O)cc2)ncn1 (stereo not drawn) [Compound I, 5-(4-{2-[(6-methoxypyrimydin-4-yl)-methyl-amino]-ethoxyl}-benzyl)-thiazolidin-2,4-dione] | problems of stability and solubility | problems of stability | – | – | – |
| COc1cc(N(C)CCOc2ccc(CC3SC(=O)NC3=O)cc2)ncn1.[Na] (stereo not drawn) [Sodium Salt, sodium salt of 5-(4-{2-[(6-methoxy-pyrimydin-4-yl)-methyl-amino]-ethoxy}-benzyl)-thiazolidin-2,4-dione] | – | good stability | higher than 1 mg/ml | better oral absorption profile than the free base | without problems of hygroscopicity or formation of solvates |
